Data on 43 compounds can be found in patent publication US11505558B1, “Antiviral heterocyclic compounds” (Enanta Pharmaceuticals, Inc., priority 2019, dated 2022).

In general, EC50 refers to the concentration giving half of the maximal effect.

This test has as its system genotype A, "Long" strain RSV. Put plainly: RSV-A assay (CPE, ATPlite readout in Hep-2 cells). It counts as cell-based. The settings on record: human respiratory syncytial virus, HEp-2, Hep-2 cells, genotype A "Long" strain RSV, MOI 0.1; read-out: Human RSV-A (“Long” strain) EC50. The text has this:
Hep-2 cells, (originally derived from tumors grown in irradiated-cortisonised weanling rats that had been injected with epidermoid carcinoma tissue from a person's larynx, but later found to be indistinguishable from HeLa cells by PCR DNA analysis), were used for the culturing of genotype A, “Long” strain RSV. Flasks were inoculated with RSV and viral stocks were collected once cytopathic effect (CPE) was greater than […]. Viral stocks in […] sucrose media were snap frozen using liquid nitrogen to increase viral stability. Viral stock titers were quantified by tissue culture infectious dose 50% (TCID50) using 8,000 cells per well and 3-fold viral dilutions across a 96-well plate, cultured for 4 days. Viral stock titers were also quantified by a plaque forming unit assay, as described elsewhere.
Following extensive parameter testing, the final assay is run as follows: Hep-2 cells are seeded into the inner 60 wells of a 96-well plate at 8,000 cells per well in a volume of 50 μL using Growth Media (DMEM without phenol red, 1% L-Glut, 1% Penn/Strep, 1% nonessential amino acids, 10% heat-inactivated FBS). 2-fold serial dilutions of control and test compounds are added to the wells in duplicate in a total volume of 25 μL. Viral stock is then added to the wells at a multiplicity of infection (MOI) of 0.1 in a volume of 25 μL, bringing the total volume of each well to 100 μL. The MOI is calculated using the PFU/mL, or TCID50 if unavailable. Each 96-well plate has a control column of 6 wells with cells and virus but no compound (negative control, max CPE), a column with cells but no compound or virus (positive control, minimum CPE), and a column with no cells or virus or compound (background plate/reagent control). The control wells with cells but no virus are given an additional 25 μL of growth media containing an equal quantity of sucrose as those wells receiving the viral stock in order to keep consistent in media and volume conditions. The outer wells of the plate are filled with 125 μL of moat media (DMEM, 1% Penn/Strep) to act as a thermal and evaporative moat around the test wells. Following a 5-day incubation period, the plates are read using ATPlite (50 uL added per well), which quantifies the amount of ATP (a measure of cell health) present in each well. Assay plates are read using the Envision luminometer. […] EC50 ranges are as follows: A<0.2 μM; B>0.2 μM.
A general note: Cellular ATP, detected with luciferase, serves as a proxy for viable cell number.
Consider `C[C@]1(C(N)=O)COc2c1cc([C@@](O)(CNC(=O)c1ccc(OC3CC3)cc1)C(F)(F)F)nc2-c1ccc(F)cc1` [Example 71], for which the EC50 is < 200 nM.
In the case of `C[C@]1(C(N)=O)COc2c1cc([C@@](O)(CNC(=O)c1ccc(OC3CC3)c(F)c1)C(F)(F)F)nc2-c1ccc(F)cc1` [Example 72] it was < 200 nM; in that of `COc1cc(C(=O)NC[C@](O)(c2cc3c(c(-c4ccc(F)cc4)n2)OC[C@]3(C)C(=O)NCC2(C)CC2)C(F)(F)F)cc2cccnc12` [Example 76], < 200 nM; in that of `C[C@]1(C(N)=O)COc2c1cc([C@@](O)(CNC(=O)c1ccc(OC3CC3)c(-c3ccccc3)c1)C(F)(F)F)nc2-c1ccc(F)cc1` [Example 77], < 200 nM.
In the case of `C[C@]1(C(N)=O)COc2c1cc([C@@](O)(CNC(=O)c1ccc(OC3CC3)c(-c3cncnc3)c1)C(F)(F)F)nc2-c1ccc(F)cc1` [Example 78] it was < 200 nM.
In the case of `Cc1ncccc1-c1cc(C(=O)NC[C@](O)(c2cc3c(c(-c4ccc(F)cc4)n2)OC[C@]3(C)C(N)=O)C(F)(F)F)ccc1OC1CC1` [Example 97] it was > 200 nM; in that of `C[C@]1(C(N)=O)COc2c1cc([C@@](O)(CNC(=O)c1ccc(OC3CC3)c(-c3ccnc(C(F)(F)F)c3)c1)C(F)(F)F)nc2-c1ccc(F)cc1` [Example 105], > 200 nM; in that of `C[C@]1(C(N)=O)COc2c1cc([C@@](O)(CNC(=O)c1ccc(OC3CC3)c(-c3ccccn3)c1)C(F)(F)F)nc2-c1ccc(F)cc1` [Example 106], < 200 nM.
For `Cc1ccc(-c2cc(C(=O)NC[C@](O)(c3cc4c(c(-c5ccc(F)cc5)n3)OC[C@]4(C)C(N)=O)C(F)(F)F)ccc2OC2CC2)nc1` [Example 107], the EC50 is > 200 nM.
Regarding `C[C@]1(C(N)=O)COc2c1cc([C@@](O)(CNC(=O)c1ccc(OC3CC3)c(-c3ccc(C(F)(F)F)cn3)c1)C(F)(F)F)nc2-c1ccc(F)cc1` [Example 108], the EC50 is > 200 nM.
Regarding `Cc1cccc(-c2cc(C(=O)NC[C@](O)(c3cc4c(c(-c5ccc(F)cc5)n3)OC[C@]4(C)C(N)=O)C(F)(F)F)ccc2OC2CC2)n1` [Example 109], the EC50 was < 200 nM.
With `C[C@]1(C(N)=O)COc2c1cc([C@@](O)(CNC(=O)c1ccc(OC3CC3)c(-c3cnc(C(F)(F)F)nc3)c1)C(F)(F)F)nc2-c1ccc(F)cc1` [Example 111], the EC50 is > 200 nM.
In the case of `C[C@]1(C(N)=O)COc2c1cc([C@@](O)(CNC(=O)c1ccc(OC3CC3)c(-c3cnc(C4CC4)nc3)c1)C(F)(F)F)nc2-c1ccc(F)cc1` [Example 112] it was < 200 nM; in that of `C[C@]1(C(N)=O)COc2c1cc([C@@](O)(CNC(=O)c1ccc(OC3CC3)c(-c3ccncc3C(F)(F)F)c1)C(F)(F)F)nc2-c1ccc(F)cc1` [Example 113], > 200 nM.
As to `Cc1cnc(-c2cc(C(=O)NC[C@](O)(c3cc4c(c(-c5ccc(F)cc5)n3)OC[C@]4(C)C(N)=O)C(F)(F)F)ccc2OC2CC2)cn1` [Example 115], the EC50 is < 200 nM.
In the case of `Cc1cnccc1-c1cc(C(=O)NC[C@](O)(c2cc3c(c(-c4ccc(F)cc4)n2)OC[C@]3(C)C(N)=O)C(F)(F)F)ccc1OC1CC1` [Example 117] it was > 200 nM; in that of `C[C@]1(C(N)=O)COc2c1cc([C@@](O)(CNC(=O)c1ccc(OC3CC3)c(-c3ccc(C(F)(F)F)nc3)c1)C(F)(F)F)nc2-c1ccc(F)cc1` [Example 118], > 200 nM; in that of `C[C@]1(C(N)=O)COc2c1cc([C@@](O)(CNC(=O)c1ccc(OC3CC3)c(-c3ccncc3)c1)C(F)(F)F)nc2-c1ccc(F)cc1` [Example 119], > 200 nM.
Consider `Cc1cc(-c2cc(C(=O)NC[C@](O)(c3cc4c(c(-c5ccc(F)cc5)n3)OC[C@]4(C)C(N)=O)C(F)(F)F)ccc2OC2CC2)ccn1` [Example 120], for which the EC50 was < 200 nM.
To `Cc1noc(C)c1-c1cc(C(=O)NC[C@](O)(c2cc3c(c(-c4ccc(F)cc4)n2)OC[C@]3(C)C(N)=O)C(F)(F)F)ccc1OC1CC1` [Example 121] belongs > 200 nM; to `C[C@]1(C(N)=O)COc2c1cc([C@@](O)(CNC(=O)c1ccc(OC3CC3)c(C3=CCOCC3)c1)C(F)(F)F)nc2-c1ccc(F)cc1` [Example 122], < 200 nM; to `C[C@]1(C(N)=O)COc2c1cc([C@@](O)(CNC(=O)c1ccc(OC3CC3)c(-c3nccs3)c1)C(F)(F)F)nc2-c1ccc(F)cc1` [Example 125], < 200 nM.
To `C[C@]1(C(N)=O)COc2c1cc([C@@](O)(CNC(=O)c1ccc(OC3CC3)c(-c3cscn3)c1)C(F)(F)F)nc2-c1ccc(F)cc1` [Example 128] belongs < 200 nM; to `C[C@]1(C(N)=O)COc2c1cc([C@@](O)(CNC(=O)c1ccc(OC3CC3)c(-c3cncs3)c1)C(F)(F)F)nc2-c1ccc(F)cc1` [Example 129], < 200 nM.
To `COc1ncc(-c2cc(C(=O)NC[C@](O)(c3cc4c(c(-c5ccc(F)cc5)n3)OC[C@]4(C)C(N)=O)C(F)(F)F)ccc2OC2CC2)s1` [Example 130] belongs > 200 nM; to `CCc1ncc(-c2cc(C(=O)NC[C@](O)(c3cc4c(c(-c5ccc(F)cc5)n3)OC[C@]4(C)C(N)=O)C(F)(F)F)ccc2OC2CC2)cn1` [Example 131], < 200 nM; to `C[C@]1(C(N)=O)COc2c1cc([C@@](O)(CNC(=O)c1ccc(OC3CC3)c(-c3ccc(=O)[nH]c3)c1)C(F)(F)F)nc2-c1ccc(F)cc1` [Example 132], > 200 nM.
As for `C[C@]1(C(N)=O)COc2c1cc([C@@](O)(CNC(=O)c1ccc(OC3CC3)c(N3CCOCC3)c1)C(F)(F)F)nc2-c1ccc(F)cc1` [Example 133], the EC50 is < 200 nM.
`C[C@]1(C(N)=O)COc2c1cc([C@@](O)(CNC(=O)c1ccc(OC3CC3)c(N3CCCCC3)c1)C(F)(F)F)nc2-c1ccc(F)cc1` [Example 134]: the EC50 was > 200 nM.
To `C[C@]1(C(N)=O)COc2c1cc([C@@](O)(CNC(=O)c1ccc(OC3CC3)c(-c3ccnnc3)c1)C(F)(F)F)nc2-c1ccc(F)cc1` [Example 135] belongs < 200 nM.
Regarding `C[C@]1(C(N)=O)COc2c1cc([C@@](O)(CNC(=O)c1ccc(OC3CC3)c(-c3cccnc3C(F)(F)F)c1)C(F)(F)F)nc2-c1ccc(F)cc1` [Example 138], the EC50 was < 200 nM.
To `C[C@]1(C(N)=O)COc2c1cc([C@@](O)(CNC(=O)c1ccc(OC3CC3)c(-c3cnccc3C(F)(F)F)c1)C(F)(F)F)nc2-c1ccc(F)cc1` [Example 139] belongs > 200 nM.
To `C[C@]1(C(N)=O)COc2c1cc([C@@](O)(CNC(=O)c1ccc(-c3cccnc3)c(OC3CC3)c1)C(F)(F)F)nc2-c1ccc(F)cc1` [Example 141] belongs < 200 nM; to `Cc1cncc(-c2ccc(C(=O)NC[C@](O)(c3cc4c(c(-c5ccc(F)cc5)n3)OC[C@]4(C)C(N)=O)C(F)(F)F)cc2OC2CC2)c1` [Example 142], > 200 nM.
In the case of `C[C@]1(C(N)=O)COc2c1cc([C@@](O)(CNC(=O)c1ccc(-c3cncc(C(F)(F)F)c3)c(OC3CC3)c1)C(F)(F)F)nc2-c1ccc(F)cc1` [Example 143] it was > 200 nM; in that of `Cc1ncccc1-c1ccc(C(=O)NC[C@](O)(c2cc3c(c(-c4ccc(F)cc4)n2)OC[C@]3(C)C(N)=O)C(F)(F)F)cc1OC1CC1` [Example 144], > 200 nM.
Take `C[C@]1(C(N)=O)COc2c1cc([C@@](O)(CNC(=O)c1ccc(-c3cccnc3C(F)(F)F)c(OC3CC3)c1)C(F)(F)F)nc2-c1ccc(F)cc1` [Example 145]: the EC50 was > 200 nM.
In the case of `Cc1ccc(-c2ccc(C(=O)NC[C@](O)(c3cc4c(c(-c5ccc(F)cc5)n3)OC[C@]4(C)C(N)=O)C(F)(F)F)cc2OC2CC2)cn1` [Example 146] it was > 200 nM; in that of `C[C@]1(C(N)=O)COc2c1cc([C@@](O)(CNC(=O)c1ccc(-c3ccc(C(F)(F)F)nc3)c(OC3CC3)c1)C(F)(F)F)nc2-c1ccc(F)cc1` [Example 147], > 200 nM; in that of `Cc1ccncc1-c1ccc(C(=O)NC[C@](O)(c2cc3c(c(-c4ccc(F)cc4)n2)OC[C@]3(C)C(N)=O)C(F)(F)F)cc1OC1CC1` [Example 148], > 200 nM.
To `C[C@]1(C(N)=O)COc2c1cc([C@@](O)(CNC(=O)c1ccc(-c3cnccc3C(F)(F)F)c(OC3CC3)c1)C(F)(F)F)nc2-c1ccc(F)cc1` [Example 149] belongs > 200 nM; to `C[C@]1(C(N)=O)COc2c1cc([C@@](O)(CNC(=O)c1ccc(-c3ccncc3)c(OC3CC3)c1)C(F)(F)F)nc2-c1ccc(F)cc1` [Example 150], < 200 nM.
In the case of `Cc1cc(-c2ccc(C(=O)NC[C@](O)(c3cc4c(c(-c5ccc(F)cc5)n3)OC[C@]4(C)C(N)=O)C(F)(F)F)cc2OC2CC2)ccn1` [Example 151] it was < 200 nM.
